Assay results published in patent US10160747B2, “Compounds and methods for kinase modulation, and indications therefor” (Plexxikon Inc., priority 2016, dated 2018).

Tests used:
[1] = system: MOLM-14 D835Y (endogenous FLT3 ITD and transfected FLT3 D835Y); assay: MOLM-14 D835Y cell proliferation assay (CellTiter-Glo); format: cell-based; details: Homo sapiens, MOLM-14, 72 h; 3 d growth, GMean
How it was run: (§1)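 MOLM-14 derivatives carrying D835Y or F691L, selected under escalating AC220, were seeded at 1×10^4 cells/well and exposed to an 8-point 1:3 compound series (1 to 0.00046 μM, 0.2% DMSO final) for three days at 37° C., 5% CO2. CellTiter-Glo luminescence (ATP content) versus concentration gave IC50.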

[2] = system: MOLM-14 F691L (endogenous FLT3 ITD and transfected FLT3 F691L); assay: MOLM-14 F691L cell proliferation assay (CellTiter-Glo); format: cell-based; details: Homo sapiens, MOLM-14, 72 h; 3 d growth, GMean
How it was run: as §1

BA/F3-FLT3-ITD + D835Y = target: T1, BA/F3-FLT3-ITD + D835Y (Homo sapiens, UniProt P36888, D835Y, cells depend on it, form not given); assay: Engineered BA/F3 cell growth assay, FLT3 ITD/D835Y; format: cell-based, murine; details: 3 d growth
T1 sequence (P36888 with tags, fused parts or gaps INS600HVDFREYEYD/D835Y): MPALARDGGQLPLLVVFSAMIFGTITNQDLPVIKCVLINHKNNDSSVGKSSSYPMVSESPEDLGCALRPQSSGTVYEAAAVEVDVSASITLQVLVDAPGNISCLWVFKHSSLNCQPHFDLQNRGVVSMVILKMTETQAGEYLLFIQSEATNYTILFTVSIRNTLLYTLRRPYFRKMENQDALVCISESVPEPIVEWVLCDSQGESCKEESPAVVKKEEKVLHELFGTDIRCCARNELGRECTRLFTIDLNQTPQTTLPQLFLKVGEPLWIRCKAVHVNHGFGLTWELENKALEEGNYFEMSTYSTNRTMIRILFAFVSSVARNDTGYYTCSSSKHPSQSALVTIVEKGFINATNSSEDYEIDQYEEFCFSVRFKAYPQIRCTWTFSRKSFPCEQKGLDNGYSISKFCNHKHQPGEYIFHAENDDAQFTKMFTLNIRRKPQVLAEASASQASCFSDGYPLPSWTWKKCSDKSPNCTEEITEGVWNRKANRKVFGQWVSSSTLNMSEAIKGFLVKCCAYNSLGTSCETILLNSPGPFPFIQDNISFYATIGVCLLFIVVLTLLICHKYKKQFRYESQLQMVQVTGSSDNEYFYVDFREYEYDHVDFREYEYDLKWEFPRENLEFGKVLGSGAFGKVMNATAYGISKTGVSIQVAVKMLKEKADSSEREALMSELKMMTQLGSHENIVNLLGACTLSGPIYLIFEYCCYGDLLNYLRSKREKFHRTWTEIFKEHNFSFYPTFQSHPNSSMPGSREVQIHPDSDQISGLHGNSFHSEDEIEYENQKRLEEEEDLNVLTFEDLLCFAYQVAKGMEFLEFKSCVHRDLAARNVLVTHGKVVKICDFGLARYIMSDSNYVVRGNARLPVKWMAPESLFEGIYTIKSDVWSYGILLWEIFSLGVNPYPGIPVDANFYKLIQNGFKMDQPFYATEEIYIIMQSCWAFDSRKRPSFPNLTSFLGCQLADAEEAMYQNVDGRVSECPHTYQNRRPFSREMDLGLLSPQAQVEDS
How it was run: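 Murine Ba/F3 cells transfected with full-length FLT3 ITD/D835Y, grown without IL-3 so growth depends on FLT3. Seeded at 1×10^4 cells/well, 8-point 1:3 series to 1 μM top (0.2% DMSO), 3 days at 37 °C. CellTiter-Glo luminescence (ATP) versus concentration gave IC50.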

IC50 [1] | IC50 [2] | GI50 (BA/F3-FLT3-ITD + D835Y) | Compound
0.0001 to 10 µM | 0.0001 to 10 µM | 0.0001 to 10 µM | COc1cncc(NC(=O)Cc2ccc(-c3cnc(Nc4cnn(C)c4)nc3)cc2F)c1 [Compound P-0086, 2-[2-fluoro-4-[2-[(1-methylpyrazol-4-yl)amino]pyrimidin-5-yl]phenyl]-N-(5-methoxy-3-pyridyl)acetamide]
0.0001 to 10 µM | 0.0001 to 10 µM | 0.0001 to 10 µM | Cn1cc(Nc2ncc(-c3ccc(CC(=O)NCc4ccc(C(F)(F)F)nc4)c(F)c3)cn2)cn1 [Compound P-0087, 2-[2-fluoro-4-[2-[(1-methylpyrazol-4-yl)amino]pyrimidin-5-yl]phenyl]-N-[[6-(trifluoromethyl)-3-pyridyl]methyl]acetamide]
0.0001 to 10 µM | 0.0001 to 10 µM | 0.0001 to 10 µM | Cn1cc(Nc2ncc(-c3ccc(CC(=O)NCc4ccccn4)c(F)c3)cn2)cn1 [Compound P-0088, 2-[2-fluoro-4-[2-[(1-methylpyrazol-4-yl)amino]pyrimidin-5-yl]phenyl]-N-(2-pyridylmethyl)acetamide]
0.0001 to 10 µM | 0.0001 to 10 µM | 0.0001 to 10 µM | COc1ncc(NC(=O)Cc2ccc(-c3cnc(Nc4cnn(C)c4)nc3)cc2F)cc1C(F)(F)F [Compound P-0089, 2-[2-fluoro-4-[2-[(1-methylpyrazol-4-yl)amino]pyrimidin-5-yl]phenyl]-N-[6-methoxy-5-(trifluoromethyl)-3-pyridyl]acetamide]
0.0001 to 10 µM | 0.0001 to 10 µM | 0.0001 to 10 µM | Cn1cc(Nc2ncc(-c3ccc(CC(=O)Nc4cncc(C(C)(F)F)c4)c(F)c3)cn2)cn1 [Compound P-0090, N-[5-(1,1-difluoroethyl)-3-pyridyl]-2-[2-fluoro-4-[2-[(1-methylpyrazol-4-yl)amino]pyrimidin-5-yl]phenyl]acetamide]

Second part, the molecule before the results:

Compound | IC50 [1] | IC50 [2] | GI50 (BA/F3-FLT3-ITD + D835Y)
O=C(Cc1ccc(-c2cnc3[nH]nc(C4CC4)c3c2)cc1F)Nc1cncc(C(F)(F)F)c1 [Compound P-0072, 2-[4-(3-cyclopropyl-1H-pyrazolo[3,4-b]pyridin-5-yl)-2-fluoro-phenyl]-N-[5-(trifluoromethyl)-3-pyridyl]acetamide] | 0.0001 to 10 µM | 0.0001 to 10 µM | 0.0001 to 10 µM
O=C(Cc1ccc(-c2cnc3[nH]nc(C4CC4)c3c2)cc1)Nc1cncc(C(F)(F)F)c1 [Compound P-0073, 2-[4-(3-cyclopropyl-1H-pyrazolo[3,4-b]pyridin-5-yl)phenyl]-N-[5-(trifluoromethyl)-3-pyridyl]acetamide] | 0.0001 to 10 µM | 0.0001 to 10 µM | 0.0001 to 10 µM
O=C(Cc1ccc(-c2cnc(Nc3cnn4ccccc34)nc2)cc1)Nc1cncc(C(F)(F)F)c1 [Compound P-0074, 2-[4-[2-(pyrazolo[1,5-a]pyridin-3-ylamino)pyrimidin-5-yl]phenyl]-N-[5-(trifluoromethyl)-3-pyridyl]acetamide] | 0.0001 to 10 µM | 0.0001 to 10 µM | 0.0001 to 10 µM
Cc1ncc(NC(=O)Cc2ccc(-c3cnc(Nc4cnn(C)c4C)nc3)cc2F)cc1C(F)(F)F [Compound P-0076, 2-[4-[2-[(1,5-dimethylpyrazol-4-yl)amino]pyrimidin-5-yl]-2-fluoro-phenyl]-N-[6-methyl-5-(trifluoromethyl)-3-pyridyl]acetamide] | 0.0001 to 10 µM | 0.0001 to 10 µM | 0.0001 to 10 µM
Cc1nn(C)cc1Nc1ncc(-c2ccc(CC(=O)Nc3cnc(C)c(C(F)(F)F)c3)c(F)c2)cn1 [Compound P-0077, 2-[4-[2-[(1,3-dimethylpyrazol-4-yl)amino]pyrimidin-5-yl]-2-fluoro-phenyl]-N-[6-methyl-5-(trifluoromethyl)-3-pyridyl]acetamide] | 0.0001 to 10 µM | 0.0001 to 10 µM | 0.0001 to 10 µM
Cn1cnc(Nc2ncc(-c3cc(F)c(CC(=O)Nc4cncc(C(F)(F)F)c4)cc3F)cn2)c1 [Compound P-0078, 2-(2,5-difluoro-4-(2-((1-methyl-1H-imidazol-4-yl)amino)pyrimidin-5-yl)phenyl)-N-(5-(trifluoromethyl)pyridin-3-yl)acetamide] | 0.0001 to 10 µM | 0.0001 to 10 µM | 0.0001 to 10 µM
Cc1ncc(NC(=O)Cc2ccc(-c3cnc4[nH]cc(Cl)c4n3)cc2)cc1C(F)(F)F [Compound P-0079, 2-(4-(7-chloro-5H-pyrrolo[2,3-b]pyrazin-2-yl)phenyl)-N-(6-methyl-5-(trifluoromethyl)pyridin-3-yl)acetamide] | 0.0001 to 10 µM | 0.0001 to 10 µM | 0.0001 to 10 µM
Cn1cc(Nc2ncc(-c3ccc(CC(=O)Nc4cncc(C5CC5)c4)c(F)c3)cn2)cn1 [Compound P-0081, N-(5-cyclopropyl-3-pyridyl)-2-[2-fluoro-4-[2-[(1-methylpyrazol-4-yl)amino]pyrimidin-5-yl]phenyl]acetamide] | 0.0001 to 10 µM | 0.0001 to 10 µM | 0.0001 to 10 µM
Cn1cc(Nc2ncc(-c3ccc(CC(=O)Nc4cc(C(F)(F)F)ccn4)c(F)c3)cn2)cn1 [Compound P-0082, 2-[2-fluoro-4-[2-[(1-methylpyrazol-4-yl)amino]pyrimidin-5-yl]phenyl]-N-[4-(trifluoromethyl)-2-pyridyl]acetamide] | 0.0001 to 10 µM | 0.0001 to 10 µM | 0.0001 to 10 µM
Cn1cc(Nc2ncc(-c3ccc(CC(=O)Nc4ccnc(C(F)(F)F)c4)c(F)c3)cn2)cn1 [Compound P-0083, 2-[2-fluoro-4-[2-[(1-methylpyrazol-4-yl)amino]pyrimidin-5-yl]phenyl]-N-[2-(trifluoromethyl)-4-pyridyl]acetamide] | 0.0001 to 10 µM | 0.0001 to 10 µM | 0.0001 to 10 µM
Cn1cc(Nc2ncc(-c3ccc(CC(=O)Nc4cncc(C(F)(F)F)c4)c(F)c3)cn2)cn1 [Compound P-0084, 2-[2-fluoro-4-[2-[(1-methylpyrazol-4-yl)amino]pyrimidin-5-yl]phenyl]-N-[5-(trifluoromethyl)-3-pyridyl]acetamide] | 0.0001 to 10 µM | 0.0001 to 10 µM | 0.0001 to 10 µM
